According to patent publication US11672804B1, “Pharmaceutical composition containing palbociclib and letrozole” (EGIS Gyógyszergyár Zrt., priority 2022, dated 2023):

Key:
[1] = Compatibility tests of components, 1 month; assay type: physicochemical; conditions: for degradation of letrozole caused by PTSA: 1 months
Method: The compatibility test was performed at room temperature (25° C.), 40° C. under 75% RH and 50° C., for 1 months with the various components tested in proportion to the intended composition.

[2] = pH dependence; cited from earlier work

SMILES | degradation of letrozole caused by PTSA ([1]; 25° C.) [%] | degradation of letrozole caused by PTSA ([1]; 40° C.) [%] | degradation of letrozole caused by PTSA ([1]; 50° C.) [%] | degradation of palbociclib base by PTSA ([1]; 25° C., 40° C. and 50° C., one month) | solubility [2]
N#Cc1ccc(C(c2ccc(C#N)cc2)n2cncn2)cc1 [letrozole, Letrozole] | 5 | 12 | 15 | – | –
CC(=O)c1c(C)c2cnc(Nc3ccc(N4CCNCC4)cn3)nc2n(C2CCCC2)c1=O [palbociclib base, Palbociclib] | – | – | – | did not induce degradation | soluble only in a strongly acidic medium
